From ChEMBL document CHEMBL5385865, “Discovery and optimization of 2-(trifluoromethyl)benzimidazole derivatives as novel ferroptosis inducers in vitro and in vivo” (Eur J Med Chem, 2023)
Active and inactive are the calls of the source. No cut-off for these calls is given here.

How the values were obtained:
[1] = test system: HepG2; test: Antitumor activity against human HepG2 cells xenografted in BALB/c nude mouse assessed as tumor weight reduction administered intraperitoneally every other day for 21 days; assay type: functional; details: dose 15-30 mg/kg, route ip, time 21.0 day
[2] = test system: HT-1080; test: Lethality in human HT-1080 cells assessed as inhibition of cell viability incubated for 24 hrs by MTT assay; assay type: functional, cell-based; details: HT-1080, 24 h
[3] = test system: MDA-MB-231; test: Lethality in human MDA-MB-231 cells assessed as decrease in cell viability at 10 uM incubated for 48 hrs in presence of DFO by MTT assay; assay type: functional, cell-based
[4] = test system: A-375; test: Lethality in human A-375 cells assessed as decrease in cell viability at 10 uM incubated for 48 hrs in presence of DFO by MTT assay; assay type: functional, cell-based
[5] = Toxicity in human NCM460 cells upto 20 uM incubated for 48 hrs by MTT assay; assay type: cell-based; details: ncm460, 48 h
[6] = test system: 786-0; test: Lethality in human 786-0 cells assessed as inhibition of cell viability incubated for 24 hrs by MTT assay; assay type: functional, cell-based; details: 786-0, 24 h
[7] = test system: HT-1080; test: Induction of ferroptosis in human HT-1080 cells assessed as cell death at 5 uM incubated for 24 hrs in presence of Fer-1 by morphology based microscopy; assay type: functional
[8] = Toxicity in human HEK293T cells upto 20 uM incubated for 48 hrs by MTT assay; assay type: cell-based; details: hek-293t
[9] = test system: MDA-MB-231; test: Lethality in human MDA-MB-231 cells assessed as decrease in cell viability at 10 uM incubated for 48 hrs by MTT assay; assay type: functional, cell-based
[10] = test system: HepG2; test: Lethality in human HepG2 cells assessed as inhibition of cell viability incubated for 24 hrs by MTT assay; assay type: functional, cell-based; details: HepG2, 24 h
[11] = test system: HepG2; test: Lethality in human HepG2 cells assessed as decrease in cell viability at 10 uM incubated for 48 hrs in presence of DFO by MTT assay; assay type: functional, cell-based
[12] = test system: HepG2; test: Antitumor activity against human HepG2 cells xenografted in BALB/c nude mouse assessed as tumor growth inhibition at 15 mg/kg, ip administered every other day for 21 days by electronic caliper analysis relative to control; assay type: functional; details: HepG2, 504 h, time 21 day, read-out: TGI
[13] = test system: 786-0; test: Lethality in human 786-0 cells assessed as decrease in cell viability at 10 uM incubated for 48 hrs in presence of Fer-1 by MTT assay; assay type: functional, cell-based
[14] = test system: HT-1080; test: Induction of ferroptosis in human HT-1080 cells assessed as decrease in GSH level incubated for 12 hrs by DTNB method; assay type: functional, cell-based; details: dose 0.5-5 µM
[15] = test system: 786-0; test: Lethality in human 786-0 cells assessed as decrease in cell viability at 10 uM incubated for 48 hrs in presence of DFO by MTT assay; assay type: functional, cell-based
[16] = test system: HeLa; test: Lethality in human HeLa cells assessed as decrease in cell viability at 10 uM incubated for 48 hrs in presence of DFO by MTT assay; assay type: functional, cell-based
[17] = test system: HepG2; test: Induction of apoptosis in human HepG2 cells xenografted in BALB/c nude mouse at 15 to 30 mg/kg, ip administered every other day for 21 days by TUNEL staining based IHC analysis; assay type: functional, organism-based; details: dose 15-30 mg/kg, time 21.0 day
[18] = test system: HepG2; test: Antitumor activity against human HepG2 cells xenografted in BALB/c nude mouse assessed as tumor growth inhibition at 30 mg/kg, ip administered every other day for 21 days by electronic caliper analysis relative to control; assay type: functional; details: HepG2, 504 h, time 21 day, read-out: TGI

In the case of CN(C)S(=O)(=O)c1ccc(N2CCC(Cn3c(C(F)(F)F)nc4ccccc43)CC2)cc1, the Activity [1] is reported as “Dose-Dependent Effect”, the IC50 [2] is reported as 1260 nM and the Activity [3] is reported as “inactive”. For the same molecule, the Activity [4] was “inactive”, the Activity [5] was “Non-Toxic” and the IC50 [6] was 700 nM. For the same molecule, the Activity [7] was “inactive”, the Activity [8] was “Toxic” and the Activity [9] was “Active”. The IC50 [10] was 1330 nM, the Activity [11] was “inactive” and the inhibition in vivo at 15 mg/kg [12] was 47.6%. The Activity [13] was “inactive”, the Activity [14] was “Dose-Dependent Effect” and the Activity [15] was “inactive”. For the same molecule, the Activity [16] was “inactive”, the Activity [17] was “inactive” and the inhibition in vivo at 30 mg/kg [18] was 77.1%.
